# Columns and labels:
# USP5 = target: T1, USP5 (Homo sapiens, UniProt P45974); experiment: USP5 activity assay; type: biochemical; details: 400 nM Ub-AMC, 300 pM enzyme; pre-incubated 30 minutes at 25° C., 60 minutes at 37° C.; sigmoidal fit; read-out: USP 5
# T1 sequence (P45974 1-858): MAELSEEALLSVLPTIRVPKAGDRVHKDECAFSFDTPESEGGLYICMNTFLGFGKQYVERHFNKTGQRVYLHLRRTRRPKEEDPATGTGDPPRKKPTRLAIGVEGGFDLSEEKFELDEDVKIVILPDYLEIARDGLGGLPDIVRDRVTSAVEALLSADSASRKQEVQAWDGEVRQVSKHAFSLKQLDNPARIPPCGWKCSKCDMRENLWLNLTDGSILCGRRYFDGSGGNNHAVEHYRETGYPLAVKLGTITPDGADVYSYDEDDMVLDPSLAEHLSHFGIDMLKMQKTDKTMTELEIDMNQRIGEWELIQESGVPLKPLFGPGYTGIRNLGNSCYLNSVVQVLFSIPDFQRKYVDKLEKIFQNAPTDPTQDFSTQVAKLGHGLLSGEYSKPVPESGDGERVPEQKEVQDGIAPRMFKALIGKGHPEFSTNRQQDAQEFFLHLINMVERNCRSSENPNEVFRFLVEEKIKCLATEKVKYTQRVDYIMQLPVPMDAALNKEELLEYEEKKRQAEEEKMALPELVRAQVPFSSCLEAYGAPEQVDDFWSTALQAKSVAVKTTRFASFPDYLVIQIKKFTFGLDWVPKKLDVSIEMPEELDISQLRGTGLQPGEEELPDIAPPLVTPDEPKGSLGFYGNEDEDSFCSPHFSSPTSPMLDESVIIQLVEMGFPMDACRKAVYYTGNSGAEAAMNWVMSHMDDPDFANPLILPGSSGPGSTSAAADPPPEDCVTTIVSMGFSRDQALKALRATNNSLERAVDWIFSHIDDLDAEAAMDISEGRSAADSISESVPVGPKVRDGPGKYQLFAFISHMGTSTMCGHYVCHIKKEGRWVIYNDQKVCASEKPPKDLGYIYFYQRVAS
# Procedure: USP5 was diluted in USP buffer (50 mM Tris HCl; 0.5 mM EDTA; 5 mM DTT; 0.01% Triton X-100; Bovine Serum Albumin 0.05 mg.ml^−1 pH 7.6). Compounds stocks (100 mM) were stored at -20° C. in DMSO.
# (§1) Reactions were performed as duplicates in Black LJL 96 well plates (HE microplates; Molecular Devices; 20 μl final reaction volume). The substrate concentration for USP5 was 400 nM Ub-AMC (Boston Biochem). The concentrations of the enzyme (USP5) in specificity assays was 300 pM. The concentrations were determined in order to perform specificity assays under initial velocities at fixed substrate concentration. Compounds were pre-incubated with enzymes for 30 minutes at 25° C. Reactions were initiated by addition of substrate to the plates containing the enzymes (+/− compounds) diluted in assay buffer. Reactions were incubated for 60 minutes at 37° C. Reactions were stopped by adding acetic acid (100 mM final). Readings were performed on a Pherastar Fluorescent Reader (BMG). λ Emission 380 nm; λ Excitation=460 nm. Data (mean values +/− standard deviation) were analyzed as % of control (no compound) and plotted as percentage versus the Log of the compound concentration using GraphPad (Prism). Data were fitted to a sigmoidal model (variable slope).
# [1] = tested on: HCT116 colon cancer cells; experiment: HCT116 cell viability and proliferation assay (MTS); type: cell-based; details: Homo sapiens, HCT-116, 72 hours incubation, mean of three independent experiments, read-out: HCT116 GI50 D3
# Procedure: HCT116 colon cancer cells were obtained from ATCC (American Type Culture Collection), and maintained in Mc Coy's 5A medium containing 10% FBS, 3 mM glutamine and 1% penicillin/streptomycin. Cells were incubated at 37° C. in a humidified atmosphere containing 5% CO2.
# (§2) Cell viability was assayed using the MTS technique in 96-well culture plates (CellTiter 96® Aqueous Non-Radioactive Cell Proliferation Assay, Promega) according to the manufacturer's instructions. MTS (3-(4,5-dimethyl-thiazol-2-yl)-5-(3-carboxymethoxyphenyl)-2-(4-sulfophenyl)-2H-tetra-zolium) is a MTT-derived tetrazolium that is reduced in metabolically active cells into a soluble, cell-permeant formazan. The amount of formazan, detected by its absorbance at 492 nm is proportional to the number of living, metabolically active cells.
# (§3) 10^3 HCT116 cells were seeded per well. 24 hours later, the medium was changed and the cells treated in triplicate with the following concentrations of each compound: 10 μM-3.33 μM-1.11 μM-370 nM-123 nM-41 nM-14 nM and 5 nM. The compounds were diluted in 100% DMSO, whose final concentration on cells was kept at 0.5%.
# (§4) Cells were incubated with the compounds for 72 hours, and their viability then assayed by the addition of MTS for 2 hours. Absorbance at 492 nm was measured directly from the 96-well culture plates. G150 (Growth Inhibition 50) concentrations for each compound were calculated using a sigmoidal variable slope fit (Prism 4.0, Graphpad Softwares). Values represent mean of three independent experiments.
# [2] = tested on: PC-3 prostate cancer cells; experiment: PC3 cell viability and proliferation assay (MTS); type: cell-based; details: Homo sapiens, PC-3, 72 hours incubation, mean of three independent experiments, read-out: PC3 GI50 D3
# Procedure: PC-3 prostate cancer cells were obtained from ATCC, and maintained in F-12K medium containing 7% FBS and 1% penicillin/streptomycin. Cells were incubated at 37° C. in a humidified atmosphere containing 5% CO2.
# as §2, with “(3-(4,5-dimethyl-thiazol-2-yl)-5-(3-carboxymethoxyphenyl)-2-(4-sulfophenyl)-2H-tetrazolium)” for “(3-(4,5-dimethyl-thiazol-2-yl)-5-(3-carboxymethoxyphenyl)-2-(4-sulfophenyl)-2H-tetra-zolium)”
# as §3, with “2×10^3 PC3” for “10^3 HCT116”
# as §4, with “GI50” for “G150”
# USP7 = target: T2, USP7 (Homo sapiens, UniProt Q93009); experiment: USP7 activity assay; type: biochemical; details: 400 nM Ub-AMC, 152 pM enzyme; pre-incubated 30 minutes at 25° C., 60 minutes at 37° C.; sigmoidal fit; read-out: USP 7
# T2 construct: His tag (pFastBac-HT vector) (N); made in house; host or cells: Sf9 or High Five insect cells (baculovirus)
# Description: The cDNA encoding USP7 was obtained by PCR amplification from placenta mRNA. USP7 cDNA was subcloned by PCR into a baculovirus expression vector (pFastBac-HT; Invitrogen). A cDNA encoding a mutated USP7 was generated by mutagenic PCR. The corresponding protein encodes a cysteine to alanine substitution at residue 223. The sequences were ascertained by sequencing of the entire open reading frame. Bacmids encoding USP7 were generated following DH10bac transposition. The corresponding bacmids were transfected into insect cells (Sf9). Viruses were recovered from culture supernatant and amplified twice. Insect cells (Sf9 or High Five; lnvitrogen) were infected for 72 hours. Total cell lysates were harvested and lyzed in lysis buffer (Tris HCl 50 mM pH 7.6; 0.75 % NP40; 500 mM NaCl; 10% glycerol; 1 mM DTT; 10 mM imidazole; Protease Inhibitor Cocktail; AEBSF 20 μg.ml^−1; Aprotinin 10 μg.ml^−1). Proteins were affinity purified on metal affinity resins (Talon Metal affinity resin; BD Biosciences). Bound materials were extensively washed in wash buffer (50 mM Sodium Phosphate pH 7.0; 300 mM NaCl; 10 mM imidazole; 0.5% Triton X-100; 10% glycerol) and eluted from the resin in 250 mM imidazole-containing wash buffer. Proteins were dialyzed in dialysis buffer (Tris HCl pH 7.6 20 mM; NaCl 200 mM; DTT 1 mM; EDTA 1 mM; 10% Glycerol). Proteins purifications were analyzed on 4-12% NuPAGE (Invitrogen).
# USP7 was diluted in USP buffer (50 mM Tris HCl; 0.5 mM EDTA; 5 mM DTT; 0.01 % Triton X-100; Bovine Serum Albumin 0.05 mg.ml^−1 pH 7.6). Compounds stocks (100 mM) were stored at −20° C. in DMSO. Compounds were tested at the following final concentrations: 100 μM; 33.3 μM; 11.1 μM; 3.7 μM; 1.23 μM; 412 nM; 137 nM; 45.7 nM; 15.2 nM; 5 nM.
# as §1, with “USP7” for “USP5”, “Ub-AMC (Chem. Biol., 2003, 10, p. 837-846)” for “Ub-AMC”, “(USP7)” for “(USP5)”, “152” for “300”
# T2 sequence (Q93009 whole entry): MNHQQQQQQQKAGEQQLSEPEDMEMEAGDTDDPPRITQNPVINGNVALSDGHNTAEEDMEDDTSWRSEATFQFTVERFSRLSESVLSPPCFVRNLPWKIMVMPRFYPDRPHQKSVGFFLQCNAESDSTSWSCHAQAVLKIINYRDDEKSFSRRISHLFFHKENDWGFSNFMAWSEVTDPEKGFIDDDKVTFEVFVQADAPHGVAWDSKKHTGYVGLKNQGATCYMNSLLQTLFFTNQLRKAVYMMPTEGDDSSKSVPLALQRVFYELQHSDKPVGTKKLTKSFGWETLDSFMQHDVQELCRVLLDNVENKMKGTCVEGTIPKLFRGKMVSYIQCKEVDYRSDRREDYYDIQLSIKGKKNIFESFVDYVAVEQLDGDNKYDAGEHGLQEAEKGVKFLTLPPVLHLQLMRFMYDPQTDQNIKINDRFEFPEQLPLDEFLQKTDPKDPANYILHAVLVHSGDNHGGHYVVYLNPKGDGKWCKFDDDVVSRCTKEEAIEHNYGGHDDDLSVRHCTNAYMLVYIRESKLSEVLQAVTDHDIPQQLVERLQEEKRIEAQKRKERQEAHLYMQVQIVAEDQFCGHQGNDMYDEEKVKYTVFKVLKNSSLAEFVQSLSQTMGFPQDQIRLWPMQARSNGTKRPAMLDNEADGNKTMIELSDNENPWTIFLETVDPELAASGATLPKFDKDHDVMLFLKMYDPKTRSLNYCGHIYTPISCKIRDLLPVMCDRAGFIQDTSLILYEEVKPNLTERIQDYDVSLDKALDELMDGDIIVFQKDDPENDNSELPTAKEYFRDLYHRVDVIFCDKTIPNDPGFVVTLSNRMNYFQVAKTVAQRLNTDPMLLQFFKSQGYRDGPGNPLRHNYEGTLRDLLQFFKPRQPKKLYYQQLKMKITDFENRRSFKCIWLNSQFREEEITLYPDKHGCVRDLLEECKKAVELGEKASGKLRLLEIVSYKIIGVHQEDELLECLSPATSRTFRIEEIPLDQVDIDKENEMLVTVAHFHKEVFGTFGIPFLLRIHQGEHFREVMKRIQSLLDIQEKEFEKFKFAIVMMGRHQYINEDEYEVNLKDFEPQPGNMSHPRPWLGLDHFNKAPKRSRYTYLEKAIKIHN
smiles,measurement,setting,value
"O=C1c2ccccc2-c2nn3c(C4CC4)nnc3nc21 [Example 1j/B, 3-Cyclopropyl-1,2,3a,4,10-pentaaza-cyclopenta[b]fluoren-9-one]",IC50,USP5,317 nM
same,GI50,[1],160 nM
same,GI50,[2],107 nM
"O=C1c2ccccc2-c2nc3nnc(Cc4ccccc4)n3nc21 [Example 1k/A, 1-Benzyl-2,3,4,10,10a-pentaaza-cyclopenta[b]fluoren-9-one]",IC50,USP5,34800 nM
"O=C1c2ccccc2-c2nn3c(Cc4ccccc4)nnc3nc21 [Example 1k/B, 3-Benzyl-1,2,3a,4,10-pentaaza-cyclopenta[b]fluoren-9-one]",IC50,USP5,206 nM
same,GI50,[1],149 nM
same,GI50,[2],235 nM
"O=C1c2ccccc2-c2nc3nn(Cc4ccccc4)nc3nc21 [Example 4b, 2-Benzyl-2H-1,2,3,4,10-pentaaza-cyclopenta[b]fluoren-9-one]",IC50,USP5,> 100000 nM
same,IC50,USP7,> 100000 nM

# Reference: patent US20090181972A1, “Novel Inhibitors of Cysteine Proteases, the Pharmaceutical Compositions Thereof and their Therapeutic Applications” (priority 2005, published 2009)
